Data on 3 compounds can be found in article PMC11009625, “Antibiotic class with potent in vivo activity targeting lipopolysaccharide synthesis in Gram-negative bacteria” (Proceedings of the National Academy of Sciences of the …, 2024).

In brackets after ≈: the same amount, converted by molar mass.

Holding throughout (type): cell-based
For data set [1], the system named is efflux-defective E. coli. Description: Frequency of resistance, efflux-defective E. coli. To be noted: not told. On the procedure: Minimum inhibitory concentration (MIC) values were determined according to the Clinical Laboratory Standards Institute guidelines. Frequency of resistance was determined by plating ~5 × 10^8 bacterial cells on agar-solidified media plates containing test compound at concentrations corresponding to four times the measured solid-media MIC of the strains. Colonies were counted after 24 h, restreaked onto media containing the same concentration of compound, and the MIC remeasured against the assayed compound. Genomic DNA from isolated clones was sequenced by paired-end sequencing on an Illumina MiSeq device. Complete experimental details available in SI Appendix. […]
Minimum inhibitory concentration (MIC) determination. […] Appropriate inoculation suspension density was assessed using a Sensititre Nephelometer with a Sensititre 0.5 […]
Frequency of Resistance. Frequency of resistance was assessed by spread plating between […] cfu of a freshly-grown culture of the strain of interest on plates containing a concentration of compound corresponding to 4 times the MIC of the strain (as determined by agar-dilution MIC). […] The frequency of resistance was determined by dividing the number of colonies obtained on the selective plates after 24 hours of growth by the calculated total population plated. […]

Data set [2] concerns efflux-defective E. coli. In words: MIC in phenotypic screen, tolC-inactivated E. coli. To be noted: Escherichia coli, read-out: MIC against efflux-defective E. coli. From the text: In a search for new drug targets and starting points for antibiotic discovery, we initiated a series of phenotypic screens, based on publicly available chemical libraries and information gathered from the literature, focusing on compounds for which there was some evidence of Gram-negative antibacterial activity. In our initial screens, we evaluated activity against tolC-inactivated mutants of E. coli. The TolC protein is the outer membrane channel protein that is required for activity of several of the most important efflux pumps in E. coli, and inactivation of TolC essentially abolishes efflux pump activity ([27]). […] We successfully isolated resistant mutants against this compound. […] We resynthesized the AZ1 compound and confirmed the involvement of LpxH by WGS of selected resistant clones (SI Appendix, Table S1) ([24]–[26]). Both our own, and previously published mutations, map to the lipid X (enzymatic reaction product) binding site of LpxH (SI Appendix, Table S1 and Fig. S1A) ([23]). […]
Minimum inhibitory concentration (MIC) values were determined according to the Clinical Laboratory Standards Institute guidelines. Frequency of resistance was determined by plating ~5 × 10^8 bacterial cells on agar-solidified media plates containing test compound at concentrations corresponding to four times the measured solid-media MIC of the strains. […]

In data set [3] the test system is E. coli (EN122). Description: MIC of E. coli strain used in the in vivo efficacy studies. The settings on record: Escherichia coli. As for the experimental part:
(§1) Minimum inhibitory concentration (MIC) values were determined according to the Clinical Laboratory Standards Institute guidelines. Frequency of resistance was determined by plating ~5 × 10^8 bacterial cells on agar-solidified media plates containing test compound at concentrations corresponding to four times the measured solid-media MIC of the strains. Colonies were counted after 24 h, restreaked onto media containing the same concentration of compound, and the MIC remeasured against the assayed compound. Genomic DNA from isolated clones was sequenced by paired-end sequencing on an Illumina MiSeq device. Complete experimental details available in SI Appendix.
(§2) Lantmännen) and water. […]
(§3) Safety testing in mice. […] Mice were extensively observed and toxicity signs were scored after 0-2, 5, […]
(§4) Plasma sample analysis by UPLC/MS/MS. Concentrations of EBL-3599 and EBL-3647 in mouse blood plasma were measured by liquid chromatography tandem mass spectrometry (LC/MS/MS) in positive electrospray ionization (ESI+) in multi reaction monitoring (MRM) mode. […]
(§5) A sample volume of 20 μL was transferred into a plastic tube and mixed with 300μL acetonitrile/methanol mixture (3:1, v/v) to precipitate proteins. […] Bioanalysis of samples from each mouse were measured in duplicate and the results averaged. […]

Data set [4] has as its system K. pneumoniae (EN124). In words: MIC of K. pneumoniae strain used in the in vivo efficacy studies. The settings on record: Klebsiella pneumoniae. As for the experimental part: as §1, §2, §3, §4, §5

For `CN(c1ccccc1C(=O)Nc1ccc(S(=O)(=O)N2CCN(c3cccc(C(F)(F)F)c3)CC2)cc1)S(C)(=O)=O` [JEDI-1444], the “Frequency of resistance in efflux-defective E. coli” value in data set [1] is on record as “low frequency of resistance”.

Broadly, the MIC is the lowest concentration that inhibits growth of the organism. Consider `CN(c1ccccc1C(=O)Nc1ccc(S(=O)(=O)N2CCCCC2)cc1)S(C)(=O)=O` [JEDI-852], for which, in data set [2], the MIC lay within 4 to 8 µg/mL (≈ 8.86 to 17.7 µM).

`Cc1cc(C#N)nc(N2CCN(S(=O)(=O)c3ccc(NC(=O)c4cc(CN5CC(CN)C5)ccc4N(C)S(C)(=O)=O)cc3)CC2)n1` [EBL-3647]: the MIC in data set [3] and in data set [4] was 4 µg/mL in each case.
